This experiment concerns the target Peroxisomal N(1)-acetyl-spermine/spermidine oxidase (Rattus norvegicus). Kind of experiment: Tested for in vitro binding affinity against polyamine oxidase after intraperitoneal administration in the rat liver.

`C=C=CCNCCCNCCCNCC=C=C`: the Ki is 3000 nM.
To `C=C=CCNCCCNCCCCCCCCNCCCNCC=C=C` belongs 2500 nM.

(Values after BindingDB's records for doi:10.1021/jm00167a014 (Merrell Dow Research Institute, 1990).)
